From patent US12534469B2 (CHILDREN'S HOSPITAL MEDICAL CENTER, priority 2020, dated 2026)
pIC50: −log10 of the molar value.

These compounds were tested against T1, IRAK4 (Homo sapiens, UniProt Q9NWZ3) (assay: Reaction Biology NanoBRET target engagement assay, IRAK4). Conditions: transfected HEK-293 cells.
T1 sequence (Q9NWZ3 1-460): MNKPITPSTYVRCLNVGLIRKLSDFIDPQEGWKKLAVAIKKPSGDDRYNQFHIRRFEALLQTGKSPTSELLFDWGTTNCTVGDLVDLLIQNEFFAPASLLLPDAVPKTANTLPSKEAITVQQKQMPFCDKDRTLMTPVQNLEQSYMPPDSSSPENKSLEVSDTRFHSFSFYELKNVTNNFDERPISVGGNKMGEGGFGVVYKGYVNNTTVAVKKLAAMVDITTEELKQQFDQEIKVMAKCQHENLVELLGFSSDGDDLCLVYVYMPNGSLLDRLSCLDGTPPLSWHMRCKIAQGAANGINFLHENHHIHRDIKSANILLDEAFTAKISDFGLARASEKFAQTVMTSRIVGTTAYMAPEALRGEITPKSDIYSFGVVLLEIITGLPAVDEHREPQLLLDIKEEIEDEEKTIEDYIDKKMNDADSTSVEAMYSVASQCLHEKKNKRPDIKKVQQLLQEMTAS
Assay type: cell-based
Source text: The NanoBRET assay measures kinase engagement in real time in the context of the intact cell. Unlike the previously described biochemical kinase assay methodologies in Examples 26-27, the NanoBRET assay measures the binding and activity characteristics under equilibrium conditions using full-length kinases in the presence of cellular concentrations of ATP in live, uncompromised cells. As such, the assay provides a more relevant assessment of kinase potency and selectivity that would be expected to be observed in the native cellular environment, where potency is often considerably lower than that observed in the isolated biochemical assays (Vasta, J. D. et al., (2018) Cell Chem. Biol. 25, 206-214). The assay uses a Kinase-NanoLuc® fusion vector expressing a kinase protein to which a luciferase tag has been added, a cell-permeant fluorescent NanoBRET™ tracer, a NanoLuc® substrate, and an extracellular NanoLuc® inhibitor. Upon expression of the luciferase-tagged kinase, cells will produce a strong BRET signal only in the presence of the NanoBRET™ tracer. The extracellular NanoLuc® inhibitor ensures that the BRET signal observed emanates only from live cells. Because the BRET signal has tight distance constraints, addition of the test compound will decrease the BRET signal if the compound competes with the NanoBRET™ tracer for binding to the kinase domain. Under the appropriate tracer conditions established by the manufacturer, quantitative intracellular affinity and relative potency can then be determined using Mass Action model equations.
HEK-293 cells were purchased from ATCC. FuGENEHD Transfection Reagent, Kinase-NanoLucfusion plasmids, Transfection Carrier DNA, NanoBRETTracers and dilution buffer, NanoBRETNano-Glo Substrate, Extracellular NanoLucInhibitor were obtained from Promega.
Assays were conducted following Promega assay protocol with some modifications. HEK-293 Cells were transiently transfected with Kinase-NanoLucFusion Vector DNA by FuGENEHD Transfection Reagent. Testing compounds were delivered into 384 well assay plate by Echo 550 (LabcyteInc, Sunnyvale, CA). Transfected cells were harvested and mixed with NanoBRETTracer Reagent and dispensed into 384 well plates and incubated at 37° C. in 5% CO2 cell culture incubator for 1 hour. The NanoBRETNano-Glo Substrate plus Extracellular NanoLucInhibitor Solution were added into the wells of the assay plate and incubated for 2-3 minutes at room temperature. The donor emission wavelength (460 nm) and acceptor emission wavelength (600 nm) were measured in the EnVisionplate reader. The BRET Ratios were calculated. BRET Ratio=[(Acceptor sample÷Donor sample)−(Acceptor no-tracer control÷Donor no-tracer control)]. The IC50 values of compounds were calculated with Prism GraphPad program.
• 1). Cultivate HEK-293 cells (70-80% confluence) appropriately prior to assay. Trypsinize and collect HEK-293 cells. • 2). Prepare lipid: DNA complexes as follows: • a. Prepare a 10 μg/ml solution of DNA in Opti-MEM without serum that consists of the following ratios of carrier DNA and DNA encoding NanoLuc® fusion. 9.0 μg/mL of Transfection Carrier DNA, 1.0 μg/mL of NanoLuc fusion vector DNA and 1 mL of Opti-MEM without phenol red. Mix thoroughly. • b. Add 30 μl of FuGENE HD Transfection Reagent into each milliliter of DNA mixture to form lipid:DNA complex. • c. Mix by inversion 10 times. • d. Incubate at ambient temperature for 20 minutes to allow complexes to form. • 3). In a sterile, conical tube, mix 1 part of lipid:DNA complex with 20 parts of HEK-293 cells in suspension. Mix gently by inversion 5 times. • 4). Dispense cells+lipid:DNA complex into a sterile tissue culture dish and incubate for 22-24 hours. 2. Addition of Test Compounds (Dry Plate Shooting)
Each test compound is delivered from the compound source plate to the wells of 384-well white NBS plate by Echo 550.
• 1). […]

With `COc1cc2ncc(-c3cccc(N[C@H]4CNCC[C@@H]4F)n3)n2nc1C1CC1` [Compound 102, 6-(6-cyclopropyl-7-methoxyimidazo[1,2-b]pyridazin-3-yl)-N-((3S,4S)-4-fluoropiperidin-3-yl)pyridin-2-amine] as the compound, how does the pIC50 read?
Its pIC50 is 8.70.

`COc1cc2ncc(-c3nc(N[C@H]4CNCC[C@@H]4F)c(F)cc3F)n2nc1C(C)(C)O` [Compound 128, 2-(3-(3,5-difluoro-6-(((3S,4S)-4-fluoropiperidin-3-yl)amino)pyridin-2-yl)-7-methoxyimidazo[1,2-b]pyridazin-6-yl)propan-2-ol] was tested. Which pIC50 did it give?
Its pIC50 is 7.82.

How did the pIC50 turn out when `COc1cc2ncc(-c3cccc(N[C@H]4CNC[C@@H]4F)n3)n2nc1C1CC1` [Compound 96, 6-(6-cyclopropyl-7-methoxyimidazo[1,2-b]pyridazin-3-yl)-N-((3S,4S)-4-fluoropyrrolidin-3-yl)pyridin-2-amine] was run?
Its pIC50 is 8.70.

With `COc1cc2ncc(-c3nc(N[C@H]4CNCC[C@@H]4F)c(F)cc3F)n2nc1C1CC1` [Compound 108, 6-(6-cyclopropyl-7-methoxyimidazo[1,2-b]pyridazin-3-yl)-3,5-difluoro-N-((3S,4S)-4-fluoropiperidin-3-yl)pyridin-2-amine] as the compound, how does the pIC50 read?
The pIC50 was over 9.30.

How did the pIC50 turn out when `COc1cc2ncc(-c3nc(N[C@@H]4CCCNC4)c(F)cc3F)n2nc1C1CC1` [Compound 106, (R)-6-(6-cyclopropyl-7-methoxyimidazo[1,2-b]pyridazin-3-yl)-3,5-difluoro-N-(piperidin-3-yl)pyridin-2-amine] was run?
The pIC50 was over 9.30.

How did the pIC50 turn out when `COc1cc2ncc(-c3cccc(N[C@H]4CNC[C@@H]4F)n3)n2nc1C(C)(O)C(F)(F)F` (single isomer, unassigned; fast-eluting) [Compound 133] was run?
The pIC50 was 7.01.

With `F[C@H]1CNC[C@@H]1Nc1cccc(-c2cnc3ccc(-c4cnn5ccccc45)nn23)n1` [Compound 9, N-((3S,4S)-4-fluoropyrrolidin-3-yl)-6-(6-(pyrazolo[1,5-a]pyridin-3-yl)imidazo[1,2-b]pyridazin-3-yl)pyridin-2-amine] as the compound, how does the pIC50 read?
The pIC50 was 7.27.

`c1cc(N[C@@H]2CCCNC2)nc(-c2cnc3ccc(-c4cnn5ccccc45)nn23)c1` [Compound 19, (R)-N-(piperidin-3-yl)-6-(6-(pyrazolo[1,5-a]pyridin-3-yl)imidazo[1,2-b]pyridazin-3-yl)pyridin-2-amine] was tested. Which pIC50 did it give?
Its pIC50 is 6.29.

`COc1cc2ncc(-c3nc(N[C@H]4CNC[C@@H]4F)c(F)cc3F)n2nc1C1CC1` [Compound 107, 6-(6-cyclopropyl-7-methoxyimidazo[1,2-b]pyridazin-3-yl)-3,5-difluoro-N-((3S,4S)-4-fluoropyrrolidin-3-yl)pyridin-2-amine] was tested. Which pIC50 did it give?
The pIC50 was over 9.30.

How did the pIC50 turn out when `COc1cc2ncc(-c3nc(N[C@H]4CNC[C@@H]4F)c(F)cc3F)n2nc1C(C)(C)O` [Compound 126, 2-(3-(3,5-difluoro-6-(((3S,4S)-4-fluoropyrrolidin-3-yl)amino)pyridin-2-yl)-7-methoxyimidazo[1,2-b]pyridazin-6-yl)propan-2-ol] was run?
Its pIC50 is 8.15.

How did the pIC50 turn out when `COc1cc2ncc(-c3nc(N[C@@H]4CCCNC4)c(F)cc3F)n2nc1C(C)(C)O` [Compound 127, (R)-2-(3-(3,5-difluoro-6-(piperidin-3-ylamino)pyridin-2-yl)-7-methoxyimidazo[1,2-b]pyridazin-6-yl)propan-2-ol] was run?
Its pIC50 is 7.52.

How did the pIC50 turn out when `COc1cc2ncc(-c3cccc(N[C@H]4CNC[C@@H]4C(F)(F)F)n3)n2nc1C1CC1` [Compound 99, 6-(6-cyclopropyl-7-methoxyimidazo[1,2-b]pyridazin-3-yl)-N-((3R,4S)-4-(trifluoromethyl)pyrrolidin-3-yl)pyridin-2-amine] was run?
The pIC50 was 8.52.
